Where “and” joins values, the source holds several entries; their conditions need not be identical. Equal values may be shown once.
Experiments:
BaF3-tel-KIT-A829P = assay: Anti-proliferation assay, transformed BaF3 cells; format: cell-based; details: Mus musculus, 72 hours, CellTiter-Glo
Excerpt: (§1) Retroviral constructs for BaF3-KIT mutants were made based on the pMSCVpuro (Clontech) backbone. For TEL-KIT vector, the first 1 kb of human TEL gene with an artificial myristoylation sequence ([…]) was cloned into the pMSCVpuro retroviral vector, followed by a 3xFLAG tag sequence. Then, the kinase domain coding sequence of KIT was inserted in-frame between TEL and 3xFLAG sequences. For full-length expression vectors, the coding sequences of KIT variants were directly cloned in pMSCVpuro vector with a 3xFLAG tag at the C-terminal end. All mutagenesis was performed using the QuikChange Site-Directed Mutagenesis Kit (Stratagene) following the manufacturer’s instructions. Retrovirus was packaged in HEK293T cells by transfecting KIT-containing MSCV vectors together with two helper plasmids. Virus supernatants were harvested 48 h after transfection and filtered before infection. Then BaF3 cells were infected with harvested virus supernatants using spinoculation protocol, and stable cell lines were obtained by puromycin selection for 48 h. The IL-3 concentrations in the culture medium were gradually withdrawn until cells were able to grow in the absence of IL-3.
(§2) Cells were grown in 96-well culture plates (2500/well). The compounds of various concentrations were added into the plates. Cell proliferation was determined after treatment with compounds for 72 hours. Cell viability was measured using the CellTiter–Glo assay (Promega, USA), according to the manufacturer’s instructions, and luminescence was measured in a multi-label reader (Envision, PerkinElmer, USA). Data were normalized to control groups (DMSO) and represented by the mean of three independent measurements with standard error <20%. GI50 values were calculated using Prism 5.0 (GraphPad Software, San Diego, CA).

BaF3-tel-KIT-D816V = assay: Anti-proliferation assay, transformed BaF3 cells; format: cell-based; details: Mus musculus, 72 hours, CellTiter-Glo
Excerpt: as §1, §2

BaF3-tel-KIT-L576P = assay: Anti-proliferation assay, transformed BaF3 cells; format: cell-based; details: Mus musculus, 72 hours, CellTiter-Glo
Excerpt: as §1, §2

BaF3-tel-KIT-N822K = assay: Anti-proliferation assay, transformed BaF3 cells; format: cell-based; details: Mus musculus, 72 hours, CellTiter-Glo
Excerpt: as §1, §2

BaF3-tel-KIT-T670I-V559D = assay: Anti-proliferation assay, transformed BaF3 cells; format: cell-based; details: Mus musculus, 72 hours, CellTiter-Glo
Excerpt: as §1, §2

BaF3-tel-KIT-T670I = assay: Anti-proliferation assay, transformed BaF3 cells; format: cell-based; details: Mus musculus, 72 hours, CellTiter-Glo
Excerpt: as §1, §2

BaF3-tel-KIT-V559D-V654A = assay: Anti-proliferation assay, transformed BaF3 cells; format: cell-based; details: Mus musculus, 72 hours, CellTiter-Glo
Excerpt: as §1, §2

BaF3-tel-KIT-V559D = assay: Anti-proliferation assay, transformed BaF3 cells; format: cell-based; details: Mus musculus, 72 hours, CellTiter-Glo
Excerpt: as §1, §2

BaF3-tel-KIT-V654A = assay: Anti-proliferation assay, transformed BaF3 cells; format: cell-based; details: Mus musculus, 72 hours, CellTiter-Glo
Excerpt: as §1, §2

BaF3-tel-KIT = assay: Anti-proliferation assay, transformed BaF3 cells; format: cell-based; details: Mus musculus, 72 hours, CellTiter-Glo
Excerpt: as §1, §2

[1] = system: CSF1R transformed BaF3 cells; assay: Anti-proliferation assay, transformed BaF3 cells; format: cell-based; details: Mus musculus
Procedure: (§3) Then we used the DiscoverX’s KINOMEScan platform to further examine CHMFL-KIT-031’s kinome-wide selectivity profile. […] Besides the strong binding to V559D, it also bound strongly to KIT wt, L576P and A829P.
as §2

468 kinases/mutants = assay: KINOMEScan kinome-wide selectivity S score; format: binding; details: 1 μM
Excerpt: as §3

CAMK1B = biological target: T1, CAMK1B (Homo sapiens, UniProt Q6P2M8); assay: KINOMEScan; format: binding; set-up: dose or concentration left out as unconfirmed
T1 construct: purchased DiscoverX KINOMEscan

CIT = biological target: T2, CIT (Homo sapiens, UniProt O14578); assay: KINOMEScan; format: binding; set-up: dose or concentration left out as unconfirmed
T2 construct: purchased DiscoverX KINOMEscan

CSNK1G2 = biological target: T3, CSNK1G2 (Homo sapiens, UniProt P78368); assay: KINOMEScan; format: binding; set-up: dose or concentration left out as unconfirmed
T3 construct: purchased DiscoverX KINOMEscan

CSNK1G3 = biological target: T4, CSNK1G3 (Homo sapiens, UniProt Q9Y6M4); assay: KINOMEScan; format: binding; set-up: dose or concentration left out as unconfirmed
T4 construct: purchased DiscoverX KINOMEscan

EGFR(E746-A750del) = biological target: T5, EGFR(E746-A750del) (Homo sapiens, UniProt P00533, DEL746-750); assay: KINOMEScan; format: binding; details: Concentrations 1 mM
T5 construct: purchased DiscoverX KINOMEscan

EGFR(L858R,T790M) = biological target: T6, EGFR(L858R,T790M) (Homo sapiens, UniProt P00533, L858R/T790M); assay: KINOMEScan; format: binding
T6 construct: purchased DiscoverX KINOMEscan

FLT3(ITD,F691L) = assay: KINOMEScan; format: binding; set-up: dose or concentration left out as unconfirmed
IRAK4 = biological target: T7, IRAK4 (Homo sapiens, UniProt Q9NWZ3); assay: KINOMEScan; format: binding; set-up: dose or concentration left out as unconfirmed
T7 construct: purchased DiscoverX KINOMEscan

[2] = biological target: T8, JAK2(JH1domain-catalytic) (Homo sapiens, UniProt O60674); assay: KINOMEScan; format: binding; set-up: dose or concentration left out as unconfirmed
T8 construct: JAK2(JH1domain-catalytic); purchased DiscoverX KINOMEscan

MAP4K3 = biological target: T9, MAP4K3 (Homo sapiens, UniProt Q8IVH8); assay: KINOMEScan; format: binding; set-up: dose or concentration left out as unconfirmed
T9 construct: purchased DiscoverX KINOMEscan

MST3 = biological target: T10, MST3 (Homo sapiens, UniProt Q9Y6E0); assay: KINOMEScan; format: binding; set-up: dose or concentration left out as unconfirmed
T10 construct: purchased DiscoverX KINOMEscan

PFTK1 = biological target: T11, PFTK1 (Homo sapiens, UniProt O94921); assay: KINOMEScan; format: binding; set-up: dose or concentration left out as unconfirmed
T11 construct: purchased DiscoverX KINOMEscan

[3] = biological target: T12, RSK4(Kin.Dom.1-N-terminal) (Homo sapiens, UniProt Q9UK32); assay: KINOMEScan; format: binding
T12 construct: RSK4(Kin.Dom.1-N-terminal); purchased DiscoverX KINOMEscan

[4] = biological target: T13, TYK2(JH2domain-pseudokinase) (Homo sapiens, UniProt P29597); assay: KINOMEScan; format: binding; set-up: dose or concentration left out as unconfirmed
T13 construct: TYK2(JH2domain-pseudokinase); purchased DiscoverX KINOMEscan

KIT V559D = KIT V559D (Homo sapiens, UniProt P10721, V559D); assay: ADP-Glo biochemical assay; set-up: Kit V559D encoding residues 545-976 with His tag; His tag; made in house; host or cells: SF9 insect cells (baculovirus)
Chain of KIT V559D (P10721 545-976 V559D): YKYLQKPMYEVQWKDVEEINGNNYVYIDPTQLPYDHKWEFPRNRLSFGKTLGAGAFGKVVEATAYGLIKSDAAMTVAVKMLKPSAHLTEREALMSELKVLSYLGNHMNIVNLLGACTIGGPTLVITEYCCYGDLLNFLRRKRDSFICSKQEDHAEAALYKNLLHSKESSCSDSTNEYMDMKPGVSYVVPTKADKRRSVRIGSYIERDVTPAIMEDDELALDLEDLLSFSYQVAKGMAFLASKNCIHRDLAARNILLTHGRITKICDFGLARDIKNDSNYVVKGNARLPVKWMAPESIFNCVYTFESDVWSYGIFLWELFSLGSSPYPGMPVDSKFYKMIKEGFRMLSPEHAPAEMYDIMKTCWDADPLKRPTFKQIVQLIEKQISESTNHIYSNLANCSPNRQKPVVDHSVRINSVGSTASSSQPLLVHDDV

T8 sequence (O60674 849-1132 limits assumed): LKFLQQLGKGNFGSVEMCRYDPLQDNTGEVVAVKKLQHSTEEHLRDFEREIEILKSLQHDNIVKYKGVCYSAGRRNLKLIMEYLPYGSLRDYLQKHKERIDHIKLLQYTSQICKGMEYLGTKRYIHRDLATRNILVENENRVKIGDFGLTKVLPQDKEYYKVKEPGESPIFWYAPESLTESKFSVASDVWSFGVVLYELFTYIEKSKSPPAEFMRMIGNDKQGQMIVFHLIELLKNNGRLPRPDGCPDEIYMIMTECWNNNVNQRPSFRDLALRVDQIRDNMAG
T3 sequence (P78368 whole entry): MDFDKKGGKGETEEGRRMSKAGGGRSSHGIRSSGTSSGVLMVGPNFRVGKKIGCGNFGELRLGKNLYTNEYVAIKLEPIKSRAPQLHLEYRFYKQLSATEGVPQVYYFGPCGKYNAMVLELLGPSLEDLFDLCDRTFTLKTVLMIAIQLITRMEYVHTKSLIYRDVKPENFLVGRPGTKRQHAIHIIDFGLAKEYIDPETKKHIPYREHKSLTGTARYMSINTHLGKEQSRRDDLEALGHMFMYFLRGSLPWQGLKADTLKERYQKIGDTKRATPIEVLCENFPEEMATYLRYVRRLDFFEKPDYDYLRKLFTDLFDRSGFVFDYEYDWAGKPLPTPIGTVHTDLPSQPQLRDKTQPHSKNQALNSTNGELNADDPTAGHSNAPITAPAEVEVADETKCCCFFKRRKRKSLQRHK
T4 sequence (Q9Y6M4 whole entry): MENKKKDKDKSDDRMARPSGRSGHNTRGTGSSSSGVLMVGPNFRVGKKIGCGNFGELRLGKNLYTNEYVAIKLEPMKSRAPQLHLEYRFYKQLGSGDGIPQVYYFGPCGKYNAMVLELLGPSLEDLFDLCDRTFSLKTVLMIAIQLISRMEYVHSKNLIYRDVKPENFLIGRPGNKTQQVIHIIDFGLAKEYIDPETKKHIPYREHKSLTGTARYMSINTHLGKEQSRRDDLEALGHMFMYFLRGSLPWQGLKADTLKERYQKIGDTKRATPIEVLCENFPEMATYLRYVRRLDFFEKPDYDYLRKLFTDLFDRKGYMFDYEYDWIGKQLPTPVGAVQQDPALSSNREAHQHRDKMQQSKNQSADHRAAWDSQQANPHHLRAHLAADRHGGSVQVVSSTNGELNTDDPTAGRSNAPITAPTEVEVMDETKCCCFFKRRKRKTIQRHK
T9 sequence (Q8IVH8 whole entry): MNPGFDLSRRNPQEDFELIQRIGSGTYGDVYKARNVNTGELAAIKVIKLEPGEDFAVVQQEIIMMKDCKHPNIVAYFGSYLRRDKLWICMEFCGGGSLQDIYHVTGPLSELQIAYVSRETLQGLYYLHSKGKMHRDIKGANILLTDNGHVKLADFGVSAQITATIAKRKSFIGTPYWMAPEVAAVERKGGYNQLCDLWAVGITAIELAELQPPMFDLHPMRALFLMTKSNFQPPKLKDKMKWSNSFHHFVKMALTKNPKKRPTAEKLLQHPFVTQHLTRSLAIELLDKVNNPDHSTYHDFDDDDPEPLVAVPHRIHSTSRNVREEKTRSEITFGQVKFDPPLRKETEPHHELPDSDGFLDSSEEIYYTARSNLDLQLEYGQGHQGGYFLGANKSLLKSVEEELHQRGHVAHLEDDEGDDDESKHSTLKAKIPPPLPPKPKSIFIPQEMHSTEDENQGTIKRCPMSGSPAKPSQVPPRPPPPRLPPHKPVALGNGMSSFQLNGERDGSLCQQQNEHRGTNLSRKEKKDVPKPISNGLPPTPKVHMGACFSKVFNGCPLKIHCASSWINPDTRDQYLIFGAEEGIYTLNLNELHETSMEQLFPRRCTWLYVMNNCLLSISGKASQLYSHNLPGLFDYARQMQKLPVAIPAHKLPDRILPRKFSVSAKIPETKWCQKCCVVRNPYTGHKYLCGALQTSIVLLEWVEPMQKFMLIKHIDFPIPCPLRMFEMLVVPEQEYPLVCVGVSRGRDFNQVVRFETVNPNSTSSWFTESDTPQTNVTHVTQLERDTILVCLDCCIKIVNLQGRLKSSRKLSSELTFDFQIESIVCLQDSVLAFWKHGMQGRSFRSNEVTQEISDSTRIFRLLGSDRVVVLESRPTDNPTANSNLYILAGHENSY
T12 sequence (Q9UK32 73-400 limits assumed): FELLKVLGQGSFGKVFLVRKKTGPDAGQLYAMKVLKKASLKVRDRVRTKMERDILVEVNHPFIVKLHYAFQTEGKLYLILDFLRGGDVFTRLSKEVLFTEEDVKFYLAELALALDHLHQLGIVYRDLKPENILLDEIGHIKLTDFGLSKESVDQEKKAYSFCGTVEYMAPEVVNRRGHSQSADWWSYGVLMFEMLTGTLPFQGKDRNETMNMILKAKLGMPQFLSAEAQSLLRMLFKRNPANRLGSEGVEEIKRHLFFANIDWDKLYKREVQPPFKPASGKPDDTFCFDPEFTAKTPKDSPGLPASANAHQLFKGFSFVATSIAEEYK
T2 sequence (O14578 whole entry): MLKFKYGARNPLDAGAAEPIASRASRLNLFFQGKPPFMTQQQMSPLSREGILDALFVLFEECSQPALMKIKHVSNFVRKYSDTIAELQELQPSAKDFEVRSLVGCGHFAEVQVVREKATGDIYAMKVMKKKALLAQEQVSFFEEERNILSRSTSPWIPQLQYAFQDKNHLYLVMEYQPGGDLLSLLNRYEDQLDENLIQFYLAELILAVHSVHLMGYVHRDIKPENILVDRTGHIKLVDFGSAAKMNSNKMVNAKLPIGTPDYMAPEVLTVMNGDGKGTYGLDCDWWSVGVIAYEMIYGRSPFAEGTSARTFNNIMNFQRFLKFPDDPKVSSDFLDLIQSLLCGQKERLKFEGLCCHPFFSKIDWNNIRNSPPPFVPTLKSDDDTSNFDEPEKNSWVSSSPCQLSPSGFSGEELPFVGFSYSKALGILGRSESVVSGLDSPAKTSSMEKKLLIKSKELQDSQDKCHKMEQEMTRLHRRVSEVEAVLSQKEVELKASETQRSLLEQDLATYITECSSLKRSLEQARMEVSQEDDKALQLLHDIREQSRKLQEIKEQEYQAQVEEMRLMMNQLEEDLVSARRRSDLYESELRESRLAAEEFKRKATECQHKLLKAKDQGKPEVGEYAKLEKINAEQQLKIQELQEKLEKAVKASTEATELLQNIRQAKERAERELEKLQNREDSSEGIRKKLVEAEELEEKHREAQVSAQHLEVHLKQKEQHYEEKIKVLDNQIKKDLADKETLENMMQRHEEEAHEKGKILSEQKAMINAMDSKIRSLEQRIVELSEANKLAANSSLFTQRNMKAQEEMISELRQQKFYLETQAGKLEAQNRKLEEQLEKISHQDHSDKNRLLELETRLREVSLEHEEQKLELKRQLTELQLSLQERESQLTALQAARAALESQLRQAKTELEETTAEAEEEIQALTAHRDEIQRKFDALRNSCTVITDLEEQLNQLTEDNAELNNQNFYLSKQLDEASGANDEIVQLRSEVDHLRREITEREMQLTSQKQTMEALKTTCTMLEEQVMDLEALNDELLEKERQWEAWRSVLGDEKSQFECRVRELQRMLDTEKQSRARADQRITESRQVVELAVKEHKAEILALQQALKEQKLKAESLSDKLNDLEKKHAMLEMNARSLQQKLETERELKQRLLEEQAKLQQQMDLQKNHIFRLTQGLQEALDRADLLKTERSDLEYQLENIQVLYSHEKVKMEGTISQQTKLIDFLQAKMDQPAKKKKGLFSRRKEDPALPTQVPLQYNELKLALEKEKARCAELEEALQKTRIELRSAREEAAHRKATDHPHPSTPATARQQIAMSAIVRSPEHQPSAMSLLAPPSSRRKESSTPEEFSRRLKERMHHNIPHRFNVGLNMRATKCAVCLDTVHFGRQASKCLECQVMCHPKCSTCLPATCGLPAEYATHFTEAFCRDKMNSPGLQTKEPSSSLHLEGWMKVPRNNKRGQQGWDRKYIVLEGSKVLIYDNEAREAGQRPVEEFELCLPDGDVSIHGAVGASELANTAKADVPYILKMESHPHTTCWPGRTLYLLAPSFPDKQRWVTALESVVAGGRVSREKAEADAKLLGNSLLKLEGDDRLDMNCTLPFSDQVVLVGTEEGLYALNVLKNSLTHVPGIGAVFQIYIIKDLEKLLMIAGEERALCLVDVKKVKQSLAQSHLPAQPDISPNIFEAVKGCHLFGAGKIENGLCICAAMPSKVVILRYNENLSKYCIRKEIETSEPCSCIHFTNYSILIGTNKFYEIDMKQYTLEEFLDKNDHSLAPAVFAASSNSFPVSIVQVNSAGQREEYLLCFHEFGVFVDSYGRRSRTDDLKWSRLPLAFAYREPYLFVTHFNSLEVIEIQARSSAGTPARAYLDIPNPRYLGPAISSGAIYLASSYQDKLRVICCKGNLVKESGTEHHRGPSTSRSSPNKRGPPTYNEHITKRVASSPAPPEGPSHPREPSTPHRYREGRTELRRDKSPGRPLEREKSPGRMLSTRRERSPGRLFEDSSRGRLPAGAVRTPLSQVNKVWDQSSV

Compound: COc1cc(C(=O)NCC(=O)Nc2ccc3c(/C=C/c4ccccn4)n[nH]c3c2)cc(OC)c1OC [CHMFL-KIT-031]
- GI50 (BaF3-tel-KIT-A829P): 1800 nM
- GI50 (BaF3-tel-KIT-D816V): > 10000 nM
- GI50 (BaF3-tel-KIT-L576P): 2200 nM
- GI50 (BaF3-tel-KIT-N822K): > 10000 nM
- GI50 (BaF3-tel-KIT-T670I-V559D): > 10000 nM
- GI50 (BaF3-tel-KIT-T670I): > 10000 nM
- GI50 (BaF3-tel-KIT-V559D-V654A): 810 nM
- GI50 (BaF3-tel-KIT-V559D): 25 nM
- GI50 (BaF3-tel-KIT-V654A): 400 nM
- GI50 (BaF3-tel-KIT): > 10000 nM
- GI50 [1]: 2400 nM
- S score (1) (468 kinases/mutants): 0.01
- KINOMEScan profiling value (CAMK1B): 83
- KINOMEScan profiling value (CIT): 64
- KINOMEScan profiling value (CSNK1G2): 100
- KINOMEScan profiling value (CSNK1G3): 99
- KINOMEScan profiling value (EGFR(E746-A750del)): 100
- KINOMEScan profiling value (EGFR(L858R,T790M)): 75
- KINOMEScan profiling value (FLT3(ITD,F691L)): 91
- KINOMEScan profiling value (IRAK4): 100
- KINOMEScan profiling value [2]: 100
- KINOMEScan profiling value (MAP4K3): 100
- KINOMEScan profiling value (MST3): 86
- KINOMEScan profiling value (PFTK1): 100
- KINOMEScan profiling value [3]: 97
- KINOMEScan profiling value [4]: 100
- selectivity over KIT wt (IC50) (KIT V559D; ADP-Glo, KIT V559D vs KIT wt): about 6 fold
- IC50 (KIT V559D; purified kinase protein, ADP-Glo, 100 μM ATP): 28.2 nM and 28 nM
- selectivity over KIT wt (KIT V559D; summary statement): 10 fold

Reference: publication PMC5762309 (Oncotarget, 2017)
